ChEMBL document CHEMBL3885861, “Open TG-GATES”

Organism: Rattus norvegicus
Assay: Open TG-GATES - Regimen: Single
Type: toxicity, organism-based, Sprague-Dawley
Parameters: regimen Single, gender Male, age 6 weeks
Details: in vivo, po, 30 mg/kg, route gavage, dose level High; for APTT / Bas / Eos / Fbg / Hb / Ht / Lym / MCH / MCHC / MCV / Mono / Neu / PT / Plat / RBC / Ret / WBC: tissue Blood; for KIDNEY_L / KIDNEY_R / KIDNEY_TOTAL: tissue Kidney; for LIVER: tissue Liver; for A/G / ALP / ALT / AST / BUN / CRE / Ca / Cl / DBIL / GLC / IP / K / LDH / Na / PL / RALB / TBIL / TC / TG / TP / gamma-GTP: tissue Plasma

Nc1c2c(nc3ccccc13)CCCC2 [TACRINE]
TERMINAL_BW (3 h): 205 g | APTT (3 h): 21.4 s | Bas (3 h): 0% | Eos (3 h): 0.6% | Fbg (3 h): 313.8 mg/dL | Hb (3 h): 13.4 g/dL | Ht (3 h): 39.4% | Lym (3 h): 71% | MCH (3 h): 21.4 pg | MCHC (3 h): 34.1% | MCV (3 h): 62.7 fL | Mono (3 h): 2.6% | Neu (3 h): 25% | PT (3 h): 16.4 s | Plat (3 h): 124.7 x10_4/uL | RBC (3 h): 628.2 x10_4/ul | Ret (3 h): 8.7% | WBC (3 h): 55.6 x10_2/uL | KIDNEY_L (3 h): 0.9 g | KIDNEY_R (3 h): 0.9 g | KIDNEY_TOTAL (3 h): 1.9 g | LIVER (3 h): 9 g | A/G (3 h): 1.3 | ALP (3 h): 1523.2 IU/L | ALT (3 h): 49.8 IU/L | AST (3 h): 152.2 IU/L | BUN (3 h): 12.6 mg/dL | CRE (3 h): 0.2 mg/dL | Ca (3 h): 10.4 mg/dL | Cl (3 h): 103.8 meq/L | DBIL (3 h): 0 mg/dL | GLC (3 h): 269.6 mg/dL | IP (3 h): 9.9 mg/dL | K (3 h): 3.6 meq/L | LDH (3 h): 369.4 IU/L | Na (3 h): 139.2 meq/L | PL (3 h): 142.6 mg/dL | RALB (3 h): 3.2 g/dL | TBIL (3 h): 0.022 mg/dL | TC (3 h): 78 mg/dL | TG (3 h): 69.8 mg/dL | TP (3 h): 5.7 g/dL | gamma-GTP (3 h): 1.2 IU/L | TERMINAL_BW (6 h): 199.4 g | APTT (6 h): 20.8 s | Bas (6 h): 0% | Eos (6 h): 0.4% | Fbg (6 h): 327.2 mg/dL | Hb (6 h): 14 g/dL | Ht (6 h): 40.4% | Lym (6 h): 67% | MCH (6 h): 21.1 pg | MCHC (6 h): 34.6% | MCV (6 h): 61 fL | Mono (6 h): 3% | Neu (6 h): 29% | PT (6 h): 15.7 s | Plat (6 h): 124.5 x10_4/uL | RBC (6 h): 662.6 x10_4/ul | Ret (6 h): 7.7% | WBC (6 h): 64.5 x10_2/uL | KIDNEY_L (6 h): 0.9 g | KIDNEY_R (6 h): 0.9 g | KIDNEY_TOTAL (6 h): 1.8 g | LIVER (6 h): 8.9 g | A/G (6 h): 1.2 | ALP (6 h): 1476.6 IU/L | ALT (6 h): 51.8 IU/L | AST (6 h): 199.8 IU/L | BUN (6 h): 13.4 mg/dL | CRE (6 h): 0.2 mg/dL | Ca (6 h): 10.6 mg/dL | Cl (6 h): 106.4 meq/L | DBIL (6 h): 0 mg/dL | GLC (6 h): 221.4 mg/dL | IP (6 h): 9.3 mg/dL | K (6 h): 3.9 meq/L | LDH (6 h): 347.2 IU/L | Na (6 h): 142 meq/L | PL (6 h): 146.4 mg/dL | RALB (6 h): 3.3 g/dL | TBIL (6 h): 0.02 mg/dL | TC (6 h): 81.6 mg/dL | TG (6 h): 45.4 mg/dL | TP (6 h): 6 g/dL | gamma-GTP (6 h): 1 IU/L | TERMINAL_BW (9 h): 202.2 g | APTT (9 h): 21 s | Bas (9 h): 0% | Eos (9 h): 0.4% | Fbg (9 h): 339.6 mg/dL | Hb (9 h): 13.4 g/dL | Ht (9 h): 38.9% | Lym (9 h): 53% | MCH (9 h): 21 pg | MCHC (9 h): 34.3% | MCV (9 h): 61.3 fL | Mono (9 h): 3% | Neu (9 h): 43% | PT (9 h): 15.6 s | Plat (9 h): 128.9 x10_4/uL | RBC (9 h): 634.8 x10_4/ul | Ret (9 h): 8.3% | WBC (9 h): 78.6 x10_2/uL | KIDNEY_L (9 h): 0.9 g | KIDNEY_R (9 h): 0.9 g | KIDNEY_TOTAL (9 h): 1.8 g | LIVER (9 h): 8.4 g | A/G (9 h): 1.3 | ALP (9 h): 1511.6 IU/L | ALT (9 h): 64.4 IU/L | AST (9 h): 283 IU/L | BUN (9 h): 11.6 mg/dL | CRE (9 h): 0.2 mg/dL | Ca (9 h): 10.7 mg/dL | Cl (9 h): 106.2 meq/L | DBIL (9 h): 0.004 mg/dL | GLC (9 h): 222.6 mg/dL | IP (9 h): 9 mg/dL | K (9 h): 3.8 meq/L | LDH (9 h): 264.6 IU/L | Na (9 h): 141.4 meq/L | PL (9 h): 160.2 mg/dL | RALB (9 h): 3.3 g/dL | TBIL (9 h): 0.012 mg/dL | TC (9 h): 84 mg/dL | TG (9 h): 42.2 mg/dL | TP (9 h): 5.9 g/dL | gamma-GTP (9 h): 1 IU/L | TERMINAL_BW (24 h): 192.1 g | APTT (24 h): 20.8 s | Bas (24 h): 0% | Eos (24 h): 1% | Fbg (24 h): 351.6 mg/dL | Hb (24 h): 14.3 g/dL | Ht (24 h): 40.9% | Lym (24 h): 84.4% | MCH (24 h): 21.3 pg | MCHC (24 h): 34.8% | MCV (24 h): 61.2 fL | Mono (24 h): 2.2% | Neu (24 h): 12.4% | PT (24 h): 16.1 s | Plat (24 h): 130.3 x10_4/uL | RBC (24 h): 668.8 x10_4/ul | Ret (24 h): 6.7% | WBC (24 h): 68.9 x10_2/uL | KIDNEY_L (24 h): 0.9 g | KIDNEY_R (24 h): 0.9 g | KIDNEY_TOTAL (24 h): 1.8 g | LIVER (24 h): 7.7 g | A/G (24 h): 1.3 | ALP (24 h): 1513.8 IU/L | ALT (24 h): 44.4 IU/L | AST (24 h): 121.6 IU/L | BUN (24 h): 15 mg/dL | CRE (24 h): 0.2 mg/dL | Ca (24 h): 10.8 mg/dL | Cl (24 h): 107.8 meq/L | DBIL (24 h): 0.008 mg/dL | GLC (24 h): 187.6 mg/dL | IP (24 h): 8.8 mg/dL | K (24 h): 4.2 meq/L | LDH (24 h): 259.6 IU/L | Na (24 h): 142.2 meq/L | PL (24 h): 140.4 mg/dL | RALB (24 h): 3.2 g/dL | TBIL (24 h): 0.042 mg/dL | TC (24 h): 88.6 mg/dL | TG (24 h): 31.6 mg/dL | TP (24 h): 5.8 g/dL | gamma-GTP (24 h): 1 IU/L
